Data as given in US11524932B2, “Lipids for use in lipid nanoparticle formulations” (ACUITAS THERAPEUTICS, INC., priority 2017, dated 2022).

Key:
[1] = system: luciferase expression in the liver; assay: Luciferase mRNA in vivo evaluation using lipid nanoparticle compositions (liver luciferase expression); design: species or system mice; conditions: LNP with FLuc mRNA, tail vein injection, liver measured 4 hours after administration; for Liver Luc @ 0.5 mg/kg (ng luc/g liver): 0.5 mg mRNA/kg
Description: A lipid of structure (I), DSPC, cholesterol and PEG-lipid were solubilized in ethanol at a molar ratio of 50:10:38.5:1.5 or 47.5:10:40.8:1.7. Lipid nanoparticles (LNP) were prepared at a total lipid to mRNA weight ratio of approximately 10:1 to 30:1. Briefly, the mRNA was diluted to 0.2 mg/mL in 10 to 50 mM citrate buffer, pH 4. Syringe pumps were used to mix the ethanolic lipid solution with the mRNA aqueous solution at a ratio of about 1:5 to 1:3 (vol/vol) with total flow rates above 15 mL/min. The ethanol was then removed and the external buffer replaced with PBS by dialysis. Finally, the lipid nanoparticles were filtered through a 0.2 μm pore sterile filter.
Studies were performed in 6-8 week old female C57BL/6 mice (Charles River) 8-10 week old CD-1 (Harlan) mice (Charles River) according to guidelines established by an institutional animal care committee (ACC) and the Canadian Council on Animal Care (CCAC). Varying doses of mRNA-lipid nanoparticle were systemically administered by tail vein injection and animals euthanized at a specific time point (e.g., 4 hours) post-administration. Liver and spleen were collected in pre-weighed tubes, weights determined, immediately snap frozen in liquid nitrogen and stored at −80° C. until processing for analysis.
For liver, approximately 50 mg was dissected for analyses in a 2 mL FastPrep tubes (MP Biomedicals, Solon Ohio). ¼″ ceramic sphere (MP Biomedicals) was added to each tube and 500 μL of Glo Lysis Buffer—GLB (Promega, Madison Wis.) equilibrated to room temperature was added to liver tissue. Liver tissues were homogenized with the FastPrep24 instrument (MP Biomedicals) at 2×6.0 m/s for 15 seconds. Homogenate was incubated at room temperature for 5 minutes prior to a 1:4 dilution in GLB and assessed using SteadyGlo Luciferase assay system (Promega). Specifically, 50 μL of diluted tissue homogenate was reacted with 50 μL of SteadyGlo substrate, shaken for 10 seconds followed by 5 minute incubation and then quantitated using a CentroXS^3 LB 960 luminometer (Berthold Technologies, Germany). The amount of protein assayed was determined by using the BCA protein assay kit (Pierce, Rockford, Ill.). Relative luminescence units (RLU) were then normalized to total μg protein assayed. To convert RLU to ng luciferase a standard curve was generated with QuantiLum Recombinant Luciferase (Promega). […]
Compounds of structure (I) were formulated using the following molar ratio: 47.5% cationic lipid/10% distearoylphosphatidylcholine (DSPC)/40.8% Cholesterol/1.7% PEG lipid (“PEG-DMA” 2-[2-(ω-methoxy (polyethyleneglycol2000)ethoxy]-N,N-ditetradecylacetamide). Relative activity was determined by measuring luciferase expression in the liver 4 hours following administration via tail vein injection as described in Example 1. […]

[2] = Determination of pKa of formulated lipids (TNS fluorescence assay in lipid nanoparticles); format: physicochemical; conditions: lipid formulated in LNP (lipid/DSPC/cholesterol/PEG-lipid); pH giving half-maximal TNS fluorescence
Excerpt: As described elsewhere, the pKa of formulated lipids is correlated with the effectiveness of LNPs for delivery of nucleic acids (see Jayaraman et al, Angewandte Chemie, International Edition (2012), 51(34), 8529-8533; Semple et al, Nature Biotechnology 28, 172-176 (2010)). In some embodiments, the preferred range of pKa is ˜5 to ˜7. […] Lipid nanoparticles comprising compound of structure (I)/DSPC/cholesterol/PEG-lipid (50/10/38.5/1.5 or 47.5:10:40.8:1.7 mol %) in PBS at a concentration of 0.4 mM total lipid were prepared using the in-line process as described in Example 1. TNS was prepared as a 100 μM stock solution in distilled water. Vesicles were diluted to 24 μM lipid in 2 mL of buffered solutions containing 10 mM HEPES, 10 mM MES, 10 mM ammonium acetate, and 130 mM NaCl, where the pH ranged from 2.5 to 11. An aliquot of the TNS solution was added to give a final concentration of 1 μM and following vortex mixing fluorescence intensity was measured at room temperature in a SLM Aminco Series 2 Luminescence Spectrophotometer using excitation and emission wavelengths of 321 nm and 445 nm. A sigmoidal best fit analysis was applied to the fluorescence data and the pKa was measured as the pH giving rise to half-maximal fluorescence intensity.

SMILES	Liver Luc (ng luc/g liver), dosed at 0.3 mg/kg ([1]; footnote *: dosed at 0.3 mg/kg)	pKa [2]	Liver Luc @ 0.5 mg/kg (ng luc/g liver) [1] [ng luc/g liver]
CCCCCCCCC(CCCCCC)COC(=O)CCCCCN(CCCCCC(=O)OCC(CCCCCC)CCCCCCCC)CCNCCCCCC(=O)OCC(CCCC)CCCCCC (centres unmarked) [Compound 1]	1235 ± 345* ng luc/g liver	6.39	–
CCCCCCCCC(CCCCCC)COC(=O)CCCCCC(CCCCCC(=O)OCC(CCCCCC)CCCCCCCC)NCCCCCC(=O)OCC(CCCC)CCCCCC (centres unmarked) [Compound 2]	–	5.76	29 ± 4
CCCCCCCCC(CCCCCC)COC(=O)CCCCCNCCN(CCCCCC(=O)OCC(CCCCCC)CCCCCCCC)CCCCCC(=O)OCC(CCCCCC)CCCCCCCC (centres unmarked) [Compound 3]	–	6.5	33 ± 1
CCCCCCCCC(CCCCCC)COC(=O)CCCCCC(CCCCCC(=O)OCC(CCCCCC)CCCCCCCC)NCCCCCC(=O)OCC(CC)CCCC (centres unmarked) [Compound 4]	–	6.11	102 ± 42
